Laboratory results taken from patent publication US10709791B2, “Stabilized polymeric carriers for therapeutic agent delivery” (University of Washington, priority 2014, dated 2020).
Square brackets hold non-standard residues; d marks the D form. Peptide text beside a SMILES is read from it. * marks the point of attachment. Methacryloyl = C=C(C)C(=O)*; Ahx = NCCCCCC(=O)O

Assays:
[1] = biological target: butyrylcholinesterase (BChE) (Homo sapiens, UniProt P06276); conditions: buffer with BChE, relative to buffer alone
Procedure: The drug release studies were conducted at 37° C. and free drug detection was quantified using an elution gradient profile at 277 nm.
Recombinant human butyrylcholinesterase (BChE) was obtained from R&D systems.

[2] = human serum, 37° C., at 120 h
Procedure: The drug release studies were conducted at 37° C. and free drug detection was quantified using an elution gradient profile at 277 nm. The studies were conducted with deprotected monomers and polymers.
HPLC was used to quantify drug release by detecting free drug as a function of time normalized to amount of drug present during initial incubation. This in turn was standardized to the total available drug in the system as quantified by dissolving a known amount of polymer in 10% aq. H2SO4 for 48 h at 25° C. Using a Cipro standard curve, the total amount of drug in the polymers was validated against compositional values obtained from ^19F NMR. […]
Absorbance Detector, and Agilent ChemStation software for LC system (Palo Alto, Calif.). […]
Both non-serum (mobile phase:deionized water) and serum standards were subsequently treated with 50% acetonitrile (v/v) to promote protein precipitation. […] Non-serum standards were analysed without the need for centrifugation. […]
The drug release from polymer conjugates was carried out in serum at 37° C. at a polymer concentration of 6 mg/mL. […] Quantification of total Cipro in the polymer conjugates was measured by taking 6 mg/mL of polymer and dissolving it in 10% aq. […] The HPLC with a gradient elution profile was used to quantify amount of drug released using the same instrument parameters set forth for drug standards. […]

[3] = Serum stability of peptide macromonomers and polymers; type: in vitro ADME, human; conditions: 37° C., 0 to 12 hours, MALDI-TOF MS
Procedure: The stability of the peptide (FKFL) linker in the presence of serum proteases was evaluated by incubating the peptide monomers and polymers in human serum and analyzing the degradation products over time. Peptide (40 mM, DMSO) or polymer (4 mM, PBS) was added to human serum to a final peptide/polymer concentration of 400 μM and incubated at 37° C. At various time points, 40 μL aliquots of the mixture were withdraw and 40 μL of acetonitrile was added to precipitate serum proteins and halt protease degradation. Precipitated solutions were centrifuged at 13,000 rpm for 10 min and supernatants were analyzed by MALDI-TOF MS using a Bruker Autoflex II.

Human liver cathepsin B = biological target: T1, Human liver cathepsin B (Homo sapiens, UniProt P07858); assay: Cathepsin B cleavage assay; type: biochemical; conditions: for cathepsin B cleavage of FKFL linker and peptide release: RP-HPLC and MS
T1 construct: purchased Enzo Life Sciences; host or cells: human liver
Procedure: Human liver cathepsin B (Enzo Life Sciences) was activated for 15 minutes in a solution of 0.158 mg/mL cathepsin B, 20 mM DTT, and 10 mM EDTA at 37° C. Peptide or polymer was then solubilized in reaction buffer (10 mM phosphate, 1 mM EDTA, pH 6.6, 37° C.) and added to the enzyme solution for a final concentration of 1.28 μg/mL cathepsin B and […] peptide/polymer. […] Cleavage of the polymers was also visualized by SDS-PAGE on 8-16% Tris-Glycine Gels (Bio-Rad). For protein gel analyses, reactions were conducted at 3× concentration and 160 μg of polymer was loaded per well.

[4] = tested on: SKOV3 human ovarian cancer cells; conditions: 10 μM, 72 hours
Procedure: Induction of apoptosis was measured with a FITC Annexin V/Dead Cell Apoptosis Kit (Invitrogen) as per the manufacturer's instructions. SKOV3s cells were plated in 6-well plates at a density of 120,000 cells per well and treated with 10 μM polymer solutions for 72 hours. After 72 hours, cells were trypsinized, rinsed in PBS, centrifuged, stained with FITC-annexin V, and analyzed on a BD LSRII flow cytometer.

caspase 3/7 = conditions: 10 μM, 72 hours
Procedure: Caspase 3/7 activity was measured using a SensoLyte Homogenous AMC Caspase-3/7 Assay Kit (AnaSpec). SKOV3 cells were plated in a black 96-well plate with a clear bottom at a density of 7,000 per well and then treated with polymer (0-10 μM) for 72 hours. Assay reagents were mixed with cell culture medium as per the manufacturer's instructions, incubated for 24 hours, and fluorescence (ex/em=380 nm/500 nm) was measured using a plate reader. Percent caspase 3/7 activity was calculated relative to untreated cell cultures.

Sequence of butyrylcholinesterase (BChE) (P06276 29-602): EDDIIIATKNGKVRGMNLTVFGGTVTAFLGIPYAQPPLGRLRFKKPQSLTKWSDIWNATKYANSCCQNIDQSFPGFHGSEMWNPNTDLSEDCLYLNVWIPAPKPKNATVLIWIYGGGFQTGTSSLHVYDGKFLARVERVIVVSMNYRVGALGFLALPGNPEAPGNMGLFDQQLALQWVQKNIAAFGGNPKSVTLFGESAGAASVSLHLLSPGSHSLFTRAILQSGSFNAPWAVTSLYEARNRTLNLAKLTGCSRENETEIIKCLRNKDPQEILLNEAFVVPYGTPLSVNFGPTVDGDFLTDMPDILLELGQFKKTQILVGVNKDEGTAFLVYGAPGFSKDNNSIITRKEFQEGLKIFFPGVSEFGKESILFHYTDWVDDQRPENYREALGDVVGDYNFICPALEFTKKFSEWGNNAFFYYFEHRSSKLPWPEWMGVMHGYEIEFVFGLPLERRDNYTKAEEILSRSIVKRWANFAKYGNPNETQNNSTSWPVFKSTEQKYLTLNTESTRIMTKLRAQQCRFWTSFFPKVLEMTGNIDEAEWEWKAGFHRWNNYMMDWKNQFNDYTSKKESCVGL

Molecule | effect of added BChE on ester hydrolysis [1] | cells staining positive for annexin V [4] | caspase 3/7 activity relative to untreated cells (caspase 3/7) | cathepsin B cleavage of FKFL linker and peptide release (Human liver cathepsin B) | further results
C=C(C)C(=O)OCCOC(=O)c1cn(C2CC2)c2cc(N3CCN(C(=O)OC(C)(C)C)CC3)c(F)cc2c1=O [HBC, (hydroxyethyl)methacrylate-boc-ciprofloxacin] | increases hydrolysis |  |  |  | drug release [2]: ~50%
C=C(C)C(=O)NCCCCCC(=O)N[C@@H](Cc1ccccc1)C(=O)N[C@@H](CCCCN)C(=O)N[C@@H](Cc1ccccc1)C(=O)N[C@@H](CC(C)C)C(=O)NCCCCCC(=O)N[C@@H](CC(C)C)C(=O)N[C@@H](CCCNC(=N)N)C(=O)N[C@@H](CCSC)C(=O)N[C@@H](CCCNC(=N)N)C(=O)N[C@@H](CCC(=O)O)C(=O)N[C@H](C(=O)N[C@H](C(=O)N[C@@H](CC(=O)O)C(=O)N[C@@H](C)C(=O)N[C@@H](Cc1ccc(O)cc1)C(=O)N[C@@H](CCC(=O)O)C(=O)N[C@@H](CCCNC(=N)N)C(=O)N[C@@H](CCC(N)=O)C(=O)N[C@@H](Cc1ccccc1)C(=O)NCC(=O)N[C@@H](CCC(=O)O)C(=O)N1CCC[C@H]1C(=O)N[C@@H](CC(N)=O)C(=O)N[C@H](C(=O)N[C@@H](Cc1c[nH]c2ccccc12)C(=O)N[C@@H](C)C(N)=O)[C@@H](C)CC)[C@@H](C)CC)[C@@H](C)CC [MaAhxFKFLAhxScrBIM] ({Methacryloyl-Ahx}-FKFL[Ahx]LRMREIIDAYERQFGEPNIWA-NH2) |  |  |  |  | stability of the FKFL linker in human serum [3]: intact peptide monomer (3437 Da) was detectable after 12 hours; cleavage at the FKFL linker (Human liver cathepsin B; by 20 minutes): 100%
ciprofloxacin-(phenol)methacrylate [CPM] | increases hydrolysis |  |  |  | 
poly[(DEAEMA)-co-(BMA)]-b-[(PEGMA300)-c-(MaAhxFKFLAhxBIM)] [PolBIM] |  | 87% | more than 8 fold | release the desired (2980 Da) peptide product | 
poly[(DEAEMA)-co-(BMA)]-b-[(PEGMA300)-c-(MaAhxFKFLAhxScrBIM)] [PolScrBIM] |  | 15% | no change | release the desired (2980 Da) peptide product | 
